# “Also recorded” adds a separate entry of the source. Like-named read-outs stand apart in the source and are kept apart here.
# Assays:
# NFκB [1] = assay: Endothelial-hepatocyte co-culture: NFκB nuclear translocation in IL-1β-stimulated hPSC-ECs; assay type: cell-based, human; conditions: co-culture of hPSC-ECs with hPSC-HEPs, 10 μM for 48 hours prior to IL-1β stimulation
# Procedure: (§1) H9-ESCs were used to generate the ECs and hepatocytes for co-culture experiments and assays with nutraceuticals. Both cell types were derived from an isogenic source of hPSC to ensure a robust endothelial-hepatic model without confounding phenotypic differences due to genetic variations. The IBIDI μ-slide 2×9 wells were used for creating the co-culture setup. Each minor well was first coated with Collagen I and then a total of 2.5×10^5 hPSC-ECs and hPSC-HEPs were seeded in individual wells in a 1:1 ratio within a major well to allow equivalent contribution of paracrine factors between the two cell types (FIG. 5A). After cell attachment, the media was changed to 1:1 William's E and EGM-2 without serum, to be commonly shared by hPSC-ECs and hPSC-HEPs in a major well. Upon overnight serum starvation, the co-cultures were pre-conditioned with 10 μM of Quercetin or Genistein for 48 hours prior to IL-1β stimulation.
# Cells were fixed with 4% paraformaldehyde (Nacalai Tesque, cat. no. 09154-14) and permeabilized by 0.5% Triton X-100 (Acros Organics, cat. no. 215680010) in PBS with Ca^2+ and MG^2+ at room temperature. Blocking was performed using PBS with 10% serum overnight at 4° C. Cells were incubated with the respective primary antibody diluted in 0.1% serum containing PBS for 1 hour and secondary antibodies in 0.1% serum containing PBS for another hour. […]
# primary rat hepatocytes = assay: LC-MS metabolic profile of nutraceuticals by primary rat hepatocytes; assay type: in vitro ADME; conditions: 10 μM
# Procedure: The metabolic potential of the hPSC-HEPs and primary rat hepatocytes (freshly isolated according to our previously established protocol) were tested by exposing them to nutraceuticals quercetin and genistein (10 μM) over different durations. Internal standard (Emodin, 10 ng/ml) was added to the conditioned media. The SPE column (Phenomenex, Strata C18-E, 55 μm, 70 Å) was conditioned by washing with 1 ml methanol and then 2 ml DI water. Conditioned media was added into the column and 1.5 mL 30% methanol was added to elute the impurity such as phenol red in the medium. 0.1% Formic acid methanol was added to the column to elute all the metabolites and internal standard out to a 15 mL tube. Liquid in the 15 mL tube was dried under N2 in a sample concentrator with 30° C. heater. After drying the sample, 100 μL of 0.1% formic acid methanol was added to the 15 mL tube and vortex for 30 s and transfer to another 1.5 mL tube. The samples were then centrifuged at 13,000 rpm for 10 min at 4° C. and 10 μl of the supernatant was injected into LC-MS. High performance liquid chromatography combined with electrospray ionization ion trap time-of-flight multistage mass spectrometry (HPLC-DAD-ESI-ITTOF-MSn) analyses were performed with a Shimadzu LCMS-IT-TOF instrument, which was composed of two LC-20AD pumps, an SIL-20AC autosampler, a CTO-20A column oven, a CBM-20A system controller, an ESI ion source, and an IT-TOF mass spectrometer (Shimadzu, Kyoto, Japan).
# NFκB [2] = assay: NFκB nuclear translocation (immunostaining) in IL-1β-stimulated hPSC-ECs, monoculture; assay type: cell-based, human; conditions: for NFκB nuclear translocation levels: 10 μM, IL-1β-stimulated hPSC-ECs, monoculture
# Procedure: (§2) After the hPSC colonies attached, they were first induced to drive early mesoderm differentiation for 36 hours, using a chemically defined media, supplemented with human recombinant FGF2 (20 ng/ml, R&D Systems, cat. no. 233-FB), LY294002 (10 μM, Sigma, cat. no. L9908), and human recombinant BMP4 (10 ng/ml, R&D Systems, cat. no. 314-BP). Lateral plate mesoderm was further induced for another 3.5 days in media supplemented with human recombinant FGF2 (20 ng/ml) and BMP4 (50 ng/ml), with media change every 2 days. On day 5, the lateral plate mesoderm population was trypsinized using TrypLE Express (Gibco, cat. no. 12604) and plated on matrigel-coated plates in the same basal media supplemented with FGF2 (4 ng/ml), SB431542 (10 μM, Sigma, cat. no. S4317) and VEGF (50 ng/ml, R&D Systems, cat. no. 293-VE) with media change every 2-3 days. On day 10, PECAM1-expressing endothelial cells were sorted using fluorescence-activated cell sorting with PECAM1 antibody (Biolegend, cat. no. 303110). The PECAM1+ cells were plated at a density of 5×10^4/cm^2 onto collagen I-coated plate in commercial media EGM-2 (Lonza, cat. no. CC-3162). For every 500 ml EGM-2 media used, the following supplements are included: human epidermal growth factor (0.5 ml); VEGF, 0.5 ml; R3-insulin growth factor-1, 0.5 ml; Ascorbic acid, 0.5 ml; Hydrocortisone, 0.2 ml; hFibroblast growth factor-beta, 2.0 ml; FBS, 10.0 ml; Gentamicin Amphotericin, 0.5 ml. hPSC-ECs were passaged using TrypLE Express when they reached more than 75% confluency. Fresh complete EGM-2 media were replaced every 2-3 days. All experiments were performed on cells up to passage 10. hPSC-ECs derived from three different cell lines, H9-ESCs (FIGS. 1-5), IMR90-iPSCs and BJ-iPSCs (FIGS. 7-8), were functionally characterized and used in inflammatory activation assays. In EC marker and functional characterization, human coronary artery ECs (HCAECs) were used as positive control, while HeLa cells and human hepatocellular carcinoma cells (HUH7) were used as negative controls.
# (§3) Cells were fixed with 4% paraformaldehyde (Nacalai Tesque, cat. no. 09154-14) and permeabilized by 0.5% Triton X-100 (Acros Organics, cat. no. 215680010) in PBS with Ca^2+ and MG^2+ at room temperature. Blocking was performed using PBS with 10% serum overnight at 4° C. Cells were incubated with the respective primary antibody diluted in 0.1% serum containing PBS for 1 hour and secondary antibodies in 0.1% serum containing PBS for another hour. Washes were performed twice using 0.1% serum containing PBS. DAPI (1 μg/ml, Thermo, cat. no. D3571) was used to stain the cell nucleus for 10 min.
# NFκB [3] = assay: hPSC-HEP conditioned media on IL-1β-stimulated hPSC-ECs: NFκB nuclear translocation; assay type: cell-based, human; conditions: hPSC-HEP conditioned media (10 μM, 48 hour) on IL-1β-stimulated hPSC-ECs
# Procedure: (§4) HPSC-HEPs (1.25×10^5 cells/cm^2) were cultured for 48 hour in 1:1 William's E medium+EGM-2 without serum containing 10 μM Quercetin or 10 μM Genistein. Conditioned media from hPSC-HEPs treated with quercetin or genistein were collected, and added to hPSC-ECs (that were serum starved overnight) along with 20 ng/ml of IL-13 for determination of NFκB nuclear colocalization (at 1 hour), gene expression profile of inflammatory markers (at 6 hour), and IL-8 protein levels (1 day) upon inflammation.
# as §3
# hPSC-ECs = assay: LC-MS metabolic profile of nutraceuticals by hPSC-ECs; assay type: in vitro ADME, human; conditions: hPSC-EC conditioned media
# [4] = cited from earlier work
# [5] = higher concentrations; cited from earlier work
# IL-8 [6] = assay: Endothelial-hepatocyte co-culture: IL-8 protein; assay type: cell-based, human; conditions: co-culture of hPSC-ECs with hPSC-HEPs, 10 μM for 48 hours prior to IL-1β stimulation
# Procedure: as §1
# (§5) Conditioned EGM-2 media were collected, and concentration of human IL-8 was determined using the human IL-8 ELISA kit (Invitrogen, cat. no. KHC0081) according to manufacturer's instructions.
# IL-8 [7] = assay: IL-8 ELISA of conditioned media of IL-1β-stimulated hPSC-ECs, monoculture; assay type: cell-based, human; conditions: for IL-8 protein levels from conditioned media: 10 μM, 48 hours, IL-1β-stimulated hPSC-ECs, monoculture
# Procedure: as §2, §5
# hPSC-HEPs = assay: LC-MS metabolic profile of nutraceuticals by hPSC-HEPs; assay type: in vitro ADME, human; conditions: 10 μM
# Procedure: (§6) Hepatocytes were generated from hPSCs by a growth factor-based differentiation protocol described in our previous protocol. After 20 days of differentiation, the cells were harvested using a serial 2× TrypLE Express treatment and further dissociated into single cells by passing them through a 40 μm cell strainer. These single cells were then seeded at 2.5×10^5 cells per well in a Collagen I (50 μg/ml, Biolaboratories, Cat. No.: 354236)-coated dishes. Attachment and recovery were promoted by seeding them in step IV differentiation medium with Hepatocyte growth factor (R&D, Cat. No.: 294-HGN-005), Follistatin (R&D, Cat. No.: FS-288), Oncostatin (R&D, Cat. No.: 295-OM-010) and Y-27632 (Rock Inhibitor) to prevent anoikis in the freshly harvested hPSC-HEPs. Next day, media was changed to Williams E medium (Sigma, Cat. No.: W1878) without serum and cells were serum starved overnight prior to nutraceutical treatments. Nutraceuticals quercetin (Sigma, Cat. No.: Q4951) and genistein (Sigma, Cat. No.: G6649) were administered at a single dose of 10 μM. Hepatocytes in this work were derived from H9-ESCs. In hepatic characterization, primary human hepatocytes (PHH) and HUH7 cells were used as positive controls, while HeLa cells were used as negative control.
# (§7) The metabolic potential of the hPSC-HEPs and primary rat hepatocytes (freshly isolated according to our previously established protocol) were tested by exposing them to nutraceuticals quercetin and genistein (10 μM) over different durations. Internal standard (Emodin, 10 ng/ml) was added to the conditioned media. The SPE column (Phenomenex, Strata C18-E, 55 μm, 70 Å) was conditioned by washing with 1 ml methanol and then 2 ml DI water. Conditioned media was added into the column and 1.5 mL 30% methanol was added to elute the impurity such as phenol red in the medium. 0.1% Formic acid methanol was added to the column to elute all the metabolites and internal standard out to a 15 mL tube. Liquid in the 15 mL tube was dried under N2 in a sample concentrator with 30° C. heater. […]
# IL-8 [8] = assay: IL-8 ELISA of conditioned media of IL-1β-stimulated hPSC-HEPs; assay type: cell-based, human; conditions: 10 μM, 48 hours
# Procedure: as §6, with “In hepatic characterization, primary human hepatocytes (PHH) and HUH7 cells were used as positive controls, while HeLa cells were used as negative control.” left out
# as §5
# [9] = system: co-culture of hPSC-ECs and hPSC-HEPs; assay: LC-MS metabolite profile in co-cultured media of hPSC-ECs and hPSC-HEPs; assay type: in vitro ADME, human
# Procedure: as §1
# The metabolic potential of the hPSC-HEPs and primary rat hepatocytes (freshly isolated according to our previously established protocol) were tested by exposing them to nutraceuticals quercetin and genistein (10 μM) over different durations. Internal standard (Emodin, 10 ng/ml) was added to the conditioned media. The SPE column (Phenomenex, Strata C18-E, 55 μm, 70 Å) was conditioned by washing with 1 ml methanol and then 2 ml DI water. […]
# [10] = system: IL-1β-stimulated hPSC-HEPs; assay: Inflammatory marker gene expression (qPCR) in IL-1β-stimulated hPSC-HEPs; assay type: cell-based, human; conditions: 10 μM, 48 hours
# Procedure: as §6
# Total RNA was prepared using RNeasy mini kit (Qiagen, cat. no. 74104). […]
# [11] = system: IL-1β-stimulated hPSC-ECs; assay: Inflammatory marker gene expression (qPCR) in IL-1β-stimulated hPSC-ECs, monoculture; assay type: cell-based; conditions: for gene expression of inflammatory markers versus IL-1β stimulated levels: 10 μM, up to 72 hours, IL-1β-stimulated hPSC-ECs, monoculture
# Procedure: as §2
# Total RNA was prepared using RNeasy mini kit (Qiagen, cat. no. 74104). Each RNA sample (250 ng) was reverse transcribed into cDNA using Maxima First Strand cDNA Synthesis kit (Thermo, cat. no. K1641). qPCR was performed on a StepOnePlus Real-Time PCR system (Thermo) using FAST SYBR green master mix (Thermo, cat. no. 4385616). Expression levels were normalized to the housekeeping gene glyceraldehyde 3-phosphate dehydrogenase (GAPDH).
# [12] = system: hPSC-HEP conditioned media treated on hPSC-ECs; assay: LC-MS metabolite profile in hPSC-HEP conditioned media treated on hPSC-ECs; assay type: in vitro ADME, human; conditions: conditioned media setting
# Procedure: as §4, §7
# [13] = BJ-ECs and IMR90-ECs, IL-1β stimulation
Compound,NFκB nuclear translocation (colocalization) (NFκB [1]),NFκB nuclear translocation levels (NFκB [2]),NFκB nuclear translocation (NFκB [3]),plasma concentrations [4] [nM],IL-8 protein levels / secretion (IL-8 [6]),IL-8 protein levels from conditioned media (IL-8 [7]),production of IL-8 protein from conditioned media (IL-8 [8]),inflammatory gene (marker) expression [10],gene expression of inflammatory markers versus IL-1β stimulated levels [11],also measured
O=c1c(O)c(-c2ccc(O)c(O)c2)oc2cc(O)cc(O)c12 [quercetin],significant suppression; also recorded: significantly decreased,remained elevated,did not seem to inhibit,300 to 3500,remarkably decreased; also recorded: significantly reduced,no significant reduction,significantly suppressed,significant reduction; also recorded: decreased most of the inflammatory marker expression,did not show substantial reduction,time of treatment by which substantial metabolites had emerged (primary rat hepatocytes; rat): ≤ 6 h; level of parent nutraceutical over time (hPSC-ECs): decrease over time; bioavailability in human plasma ([4]; human plasma): very low; safety and tolerability [5]: safe and well tolerated; optimal duration of conversion into metabolites (most metabolites peaked) (hPSC-HEPs; human): 48 h; metabolites detectable in medium [9]: detectable levels of various metabolites
"IL-1β: human recombinant inflammatory cytokine, interleukin-1 beta, used to stimulate inflammation [reference compound]",,,,,,,,,,"NFκB nuclear translocation (NFκB [2]; [13]): increase; nuclear translocation of NFκB (NFκB [2]; H9-derived hPSC-ECs, IL-1β 20 ng/ml, 1 hour): evident; IL-8 production (IL-8 [7]; [13]): elevated; production of IL-8 from conditioned media versus unstimulated cells (IL-8 [7]; H9-derived hPSC-ECs, IL-1β-stimulated): significantly higher; expression of inflammatory genes [11, 13]: up-regulation; expression of inflammatory genes versus unstimulated ([11]; H9-derived hPSC-ECs, human recombinant IL-1β 20 ng/ml, 6 hours): significant up-regulation"
O=c1c(-c2ccc(O)cc2)coc2cc(O)cc(O)c12 [genistein],significant suppression; also recorded: significantly decreased,remained elevated,did not seem to inhibit,30 to 16340,remarkably decreased; also recorded: significantly reduced,no significant reduction,significantly suppressed,significant reduction; also recorded: decreased most of the inflammatory marker expression,did not show substantial reduction,"level of parent nutraceutical over time (primary rat hepatocytes; freshly isolated primary rat hepatocytes, LC-MS): declined over time; formation of metabolites (primary rat hepatocytes; primary rat hepatocytes, LC-MS): giving rise to metabolites; levels of metabolites over time (hPSC-HEPs; hPSC-HEPs, LC-MS): increased over time; also recorded: increased with time; also recorded: giving rise to metabolites; level of parent nutraceutical over time (hPSC-HEPs; in the presence of hPSC-HEPs, LC-MS): gradually declined over time; metabolites detectable in medium ([9]; endothelial-hepatic co-culture, LC-MS): detectable levels of various metabolites; metabolites detectable in medium [12]: but not in the conditioned media setting"
